Experimental data from ChEMBL document CHEMBL1133888, “Development and in vitro efficacy of novel MMP2 and MMP9 specific doxorubicin albumin conjugates” (Bioorg Med Chem Lett, 2001).

Assay: Inhibitory effect against murine renal cell carcinoma cell line (RENCA cells) using a BrdU-incorporation assay
Format: functional, cell-based
Details: Mus musculus

COc1cccc2c1C(=O)c1c(O)c3c(c(O)c1C2=O)C[C@@](O)(C(=O)CO)C[C@@H]3O[C@H]1C[C@H](N)[C@H](O)[C@H](C)O1 [DOXORUBICIN]
IC50: < 10 nM
